Experimental data taken from US6355799B1, “Substituted benzene compounds, process for their preparation, and herbicidal and defoliant compositions containing them” (ISK Americas Incorporated, priority 1997, dated 2002).

How the values were obtained:
Type in all cases: in vivo
[1] = system: redroot pigweed (Amaranthus retroflexus, AMARE); assay: Pre-emerge test, greenhouse herbicide activity screening; conditions: pre-emerge, 14 days after application
Summary of the method: (§1)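 Herbicidal damage is scored 0 (none) to 100 (complete plant death) two weeks after a simulated field spray. Rates span 15–1000 g ai/ha, delivered in acetone at 187 l/ha. For post-emergence treatments, plants have 2–3 leaves and the spray carries 0.25% v/v non-ionic surfactant.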

[2] = system: barnyardgrass (Echinochloa crus-galli, ECHCG); assay: as above; conditions: pre-emerge, 14 days after application
Summary of the method: (§2)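 Plants grown in 10 cm pots of sandy loam mix received acetone-dissolved compounds through a moving flat-fan nozzle. Doses ranged from 15 to 1000 g ai/ha. Pre-emerge pots were seeded one day earlier, post-emerge pots 8–21 days earlier. Fourteen days on, each pot was graded 0–100 for damage.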

[3] = system: green foxtail (Setaria viridis, SETVI); assay: as above; conditions: pre-emerge, 14 days after application
Summary of the method: as §2

[4] = system: ivyleaf morningglory (Ipomoea hederacea, IPOHE); assay: as above; conditions: pre-emerge, 14 days after application
Summary of the method: as §2

[5] = system: johnsongrass (Sorghum halepense, SORHA); assay: as above; conditions: pre-emerge, 14 days after application
Summary of the method: as §2

[6] = system: lambsquarters (Chenopodium album, CHEAL); assay: as above; conditions: pre-emerge, 14 days after application
Summary of the method: as §2

[7] = system: large crabgrass (Digitaria sanguinalis, DIGSA); assay: as above; conditions: pre-emerge, 14 days after application
Summary of the method: as §2

[8] = system: sicklepod (Cassia obtusifolia, CASOB); assay: as above; conditions: pre-emerge, 14 days after application
Summary of the method: as §2

[9] = system: velvetleaf (Abutilon theophrasti, ABUTH); assay: as above; conditions: pre-emerge, 14 days after application
Summary of the method: as §2

[10] = system: field corn (Zea mays L., var. Dekalb 535, CORN); assay: Pre-emerge test, crop safety; conditions: pre-emerge, 14 days after application; for phytotoxicity rating CORN: rating scale 0-100; for phytotoxicity rating CORN (crop damage): scale 0-100
Summary of the method: as §2

[11] = system: upland rice (Oryza sp., var. Tebonnet, RICE); assay: Pre-emerge test, crop safety; conditions: pre-emerge, 14 days after application; for phytotoxicity rating RICE: rating scale 0-100; for phytotoxicity rating RICE (crop damage): scale 0-100
Summary of the method: as §2

[12] = system: barnyardgrass (Echinochloa crus-galli, ECHCG); assay: Post-emerge test, greenhouse herbicide activity screening; conditions: post-emerge, 14 days after application, rating scale 0-100
Summary of the method: as §1

[13] = system: green foxtail (Setaria viridis, SETVI); assay: as above; conditions: post-emerge, 14 days after application, rating scale 0-100
Summary of the method: as §1

[14] = system: ivyleaf morningglory (Ipomoea hederacea, IPOHE); assay: as above; conditions: post-emerge, 14 days after application, rating scale 0-100
Summary of the method: as §1

[15] = system: johnsongrass (Sorghum halepense, SORHA); assay: as above; conditions: post-emerge, 14 days after application, rating scale 0-100
Summary of the method: as §1

[16] = system: lambsquarters (Chenopodium album, CHEAL); assay: as above; conditions: post-emerge, 14 days after application, rating scale 0-100
Summary of the method: as §1

[17] = system: large crabgrass (Digitaria sanguinalis, DIGSA); assay: as above; conditions: post-emerge, 14 days after application, rating scale 0-100
Summary of the method: as §1

[18] = system: redroot pigweed (Amaranthus retroflexus, AMARE); assay: as above; conditions: post-emerge, 14 days after application
Summary of the method: as §1

[19] = system: sicklepod (Cassia obtusifolia, CASOB); assay: as above; conditions: post-emerge, 14 days after application, rating scale 0-100
Summary of the method: as §1

[20] = system: velvetleaf (Abutilon theophrasti, ABUTH); assay: as above; conditions: post-emerge, 14 days after application, rating scale 0-100
Summary of the method: as §1

[21] = system: field corn (Zea mays L., var. Dekalb 535, CORN); assay: Post-emerge test, crop safety; conditions: post-emerge, 14 days after application, rating scale 0-100
Summary of the method: (§3)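 Each test used a mechanized track sprayer delivering 187 l/ha of acetone solution at 15–1000 g ai/ha. Post-emerge foliage at 2–3 leaves was treated with added 0.25% v/v non-ionic surfactant and bottom-watered only. Injury was assessed on day 14, where 100 means total kill.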

[22] = system: upland rice (Oryza sp., var. Tebonnet, RICE); assay: Post-emerge test, crop safety; conditions: post-emerge, 14 days after application, rating scale 0-100
Summary of the method: as §3

[23] = 250 g ai/ha, rating scale 0-100

COc1c(Cl)cc(F)c(-n2c(=O)cc(C(F)(F)F)n(C)c2=O)c1NN=CCCSC [15-14]
phytotoxicity rating AMARE ([1]; 63 g ai/ha, rating scale 0-100): 100 | phytotoxicity rating AMARE [1, 23]: 100 | phytotoxicity rating ECHCG ([2]; 63 g ai/ha, rating scale 0-100): 100 | phytotoxicity rating ECHCG [2, 23]: 100 | phytotoxicity rating SETVI ([3]; 63 g ai/ha, rating scale 0-100): 100 | phytotoxicity rating SETVI [3, 23]: 100 | phytotoxicity rating IPOHE ([4]; 63 g ai/ha, rating scale 0-100): 100 | phytotoxicity rating IPOHE [4, 23]: 100 | phytotoxicity rating SORHA ([5]; 63 g ai/ha, rating scale 0-100): 100 | phytotoxicity rating SORHA [5, 23]: 100 | phytotoxicity rating CHEAL ([6]; 63 g ai/ha, rating scale 0-100): 100 | phytotoxicity rating CHEAL [6, 23]: 100 | phytotoxicity rating DIGSA ([7]; 63 g ai/ha, rating scale 0-100): 100 | phytotoxicity rating DIGSA [7, 23]: 100 | phytotoxicity rating CASOB ([8]; 63 g ai/ha, rating scale 0-100): 90 | phytotoxicity rating CASOB [8, 23]: 100 | phytotoxicity rating ABUTH ([9]; 63 g ai/ha, rating scale 0-100): 100 | phytotoxicity rating ABUTH [9, 23]: 100 | phytotoxicity rating CORN ([10]; 63 g ai/ha): 40 | phytotoxicity rating CORN ([10]; 250 g ai/ha): 99 | phytotoxicity rating RICE ([11]; 63 g ai/ha): 99 | phytotoxicity rating RICE ([11]; 250 g ai/ha): 100 | Post-emerge Herbicidal Activity ECHCG (phytotoxicity rating) ([12]; 63 g ai/ha): 20 | Post-emerge Herbicidal Activity ECHCG (phytotoxicity rating) ([12]; 250 g ai/ha): 90 | Post-emerge Herbicidal Activity SETVI (phytotoxicity rating) ([13]; 63 g ai/ha): 20 | Post-emerge Herbicidal Activity SETVI (phytotoxicity rating) ([13]; 250 g ai/ha): 55 | Post-emerge Herbicidal Activity IPOHE (phytotoxicity rating) ([14]; 63 g ai/ha): 100 | Post-emerge Herbicidal Activity IPOHE (phytotoxicity rating) ([14]; 250 g ai/ha): 100 | Post-emerge Herbicidal Activity SORHA (phytotoxicity rating) ([15]; 63 g ai/ha): 20 | Post-emerge Herbicidal Activity SORHA (phytotoxicity rating) ([15]; 250 g ai/ha): 70 | Post-emerge Herbicidal Activity CHEAL (phytotoxicity rating) ([16]; 63 g ai/ha): 100 | Post-emerge Herbicidal Activity CHEAL (phytotoxicity rating) ([16]; 250 g ai/ha): 100 | Post-emerge Herbicidal Activity DIGSA (phytotoxicity rating) ([17]; 63 g ai/ha): 20 | Post-emerge Herbicidal Activity DIGSA (phytotoxicity rating) ([17]; 250 g ai/ha): 60 | Post-emerge Herbicidal Activity AMARE (phytotoxicity rating) ([18]; 63 g ai/ha, rating scale 0-100 (0 no damage, 100 complete death)): 100 | Post-emerge Herbicidal Activity AMARE (phytotoxicity rating) [18, 23]: 100 | Post-emerge Herbicidal Activity CASOB (phytotoxicity rating) ([19]; 63 g ai/ha): 80 | Post-emerge Herbicidal Activity CASOB (phytotoxicity rating) ([19]; 250 g ai/ha): 100 | Post-emerge Herbicidal Activity ABUTH (phytotoxicity rating) ([20]; 63 g ai/ha): 100 | Post-emerge Herbicidal Activity ABUTH (phytotoxicity rating) ([20]; 250 g ai/ha): 100 | Post-emerge Herbicidal Activity CORN (crop damage rating) ([21]; 63 g ai/ha): 20 | Post-emerge Herbicidal Activity CORN (crop damage rating) ([21]; 250 g ai/ha): 65 | Post-emerge Herbicidal Activity RICE (crop damage rating) ([22]; 63 g ai/ha): 40 | Post-emerge Herbicidal Activity RICE (crop damage rating) ([22]; 250 g ai/ha): 50

COc1c(Cl)cc(F)c(-n2c(=O)cc(C(F)(F)F)n(C)c2=O)c1NC(=O)C=Cc1cccc(Cl)c1 [2-134]
phytotoxicity rating AMARE ([1]; 63 g ai/ha, scale 0-100): 100 | phytotoxicity rating AMARE ([1]; 250 g ai/ha, scale 0-100): 100 | phytotoxicity rating ECHCG ([2]; 63 g ai/ha, scale 0-100): 0 | phytotoxicity rating ECHCG ([2]; 250 g ai/ha, scale 0-100): 30 | phytotoxicity rating SETVI ([3]; 63 g ai/ha, scale 0-100): 35 | phytotoxicity rating SETVI ([3]; 250 g ai/ha, scale 0-100): 80 | phytotoxicity rating IPOHE ([4]; 63 g ai/ha, scale 0-100): 20 | phytotoxicity rating IPOHE ([4]; 250 g ai/ha, scale 0-100): 30 | phytotoxicity rating SORHA ([5]; 63 g ai/ha, scale 0-100): 0 | phytotoxicity rating SORHA ([5]; 250 g ai/ha, scale 0-100): 30 | phytotoxicity rating CHEAL ([6]; 63 g ai/ha, scale 0-100): 100 | phytotoxicity rating CHEAL ([6]; 250 g ai/ha, scale 0-100): 100 | phytotoxicity rating DIGSA ([7]; 63 g ai/ha, scale 0-100): 20 | phytotoxicity rating DIGSA ([7]; 250 g ai/ha, scale 0-100): 90 | phytotoxicity rating CASOB ([8]; 63 g ai/ha, scale 0-100): 10 | phytotoxicity rating CASOB ([8]; 250 g ai/ha, scale 0-100): 30 | phytotoxicity rating ABUTH ([9]; 63 g ai/ha, scale 0-100): 60 | phytotoxicity rating ABUTH ([9]; 250 g ai/ha, scale 0-100): 80 | phytotoxicity rating CORN (crop damage) ([10]; 63 g ai/ha): 0 | phytotoxicity rating CORN (crop damage) ([10]; 250 g ai/ha): 0 | phytotoxicity rating RICE (crop damage) ([11]; 63 g ai/ha): 10 | phytotoxicity rating RICE (crop damage) ([11]; 250 g ai/ha): 20 | ECHCG phytotoxicity rating ([12]; 63 g ai/ha): 10 | ECHCG phytotoxicity rating ([12]; 250 g ai/ha): 30 | SETVI phytotoxicity rating ([13]; 63 g ai/ha): 20 | SETVI phytotoxicity rating ([13]; 250 g ai/ha): 60 | IPOHE phytotoxicity rating ([14]; 63 g ai/ha): 100 | IPOHE phytotoxicity rating ([14]; 250 g ai/ha): 100 | SORHA phytotoxicity rating ([15]; 63 g ai/ha): 10 | SORHA phytotoxicity rating ([15]; 250 g ai/ha): 30 | CHEAL phytotoxicity rating ([16]; 63 g ai/ha): 100 | CHEAL phytotoxicity rating ([16]; 250 g ai/ha): 100 | DIGSA phytotoxicity rating ([17]; 63 g ai/ha): 0 | DIGSA phytotoxicity rating ([17]; 250 g ai/ha): 30 | AMARE phytotoxicity rating ([18]; 63 g ai/ha, rating scale 0-100): 100 | AMARE phytotoxicity rating [18, 23]: 100 | CASOB phytotoxicity rating ([19]; 63 g ai/ha): 90 | CASOB phytotoxicity rating ([19]; 250 g ai/ha): 100 | ABUTH phytotoxicity rating ([20]; 63 g ai/ha): 100 | ABUTH phytotoxicity rating ([20]; 250 g ai/ha): 100 | CORN phytotoxicity rating (crop damage) ([21]; 63 g ai/ha): 10 | CORN phytotoxicity rating (crop damage) ([21]; 250 g ai/ha): 20 | RICE phytotoxicity rating (crop damage) ([22]; 63 g ai/ha): 50 | RICE phytotoxicity rating (crop damage) ([22]; 250 g ai/ha): 80
